Residues, ends and D or L forms follow the SMILES beside them.
Assays:
defibrinated sheep blood = test: Hemolysis assay; format: cell-based; conditions: for Hemo/MIC = (< 20% Hemo) / MIC Ec: MICs >50 µM treated as 100 µM, >200 µM treated as 200 µM
E. coli (ATCC 25922) = test: Antimicrobial susceptibility testing; format: cell-based, Escherichia coli; conditions: summary values

In the case of `CC[C@H](C)[C@H](NC(=O)[C@H](CCCCN)NC(=O)[C@H](CCC(=O)O)NC(=O)[C@H](CCCCN)NC(=O)[C@H](CO)NC(=O)[C@H](CCCCN)NC(=O)[C@H](CCCNC(=N)N)NC(=O)[C@H](Cc1ccccc1)NC(=O)[C@H](Cc1ccccc1)NC(=O)[C@H](CC(=O)O)NC(=O)CN)C(=O)NCC(=O)N[C@@H](CCCCN)C(=O)N[C@@H](Cc1ccccc1)C(=O)N[C@@H](Cc1ccccc1)C(=O)N[C@@H](CCCCN)C(=O)N[C@@H](CCCNC(=N)N)C(=O)N[C@H](C(=O)N[C@H](C(=O)N[C@@H](CCC(N)=O)C(=O)N[C@@H](CCCNC(=N)N)C(=O)N[C@H](C(=O)N[C@@H](CCCCN)C(=O)O)[C@@H](C)CC)C(C)C)[C@@H](C)CC` [(#53) GD-23 (FF)] (H-GDFFRKSKEKIGKFFKRIVQRIK-OH; N-terminus and C-terminus assumed), the “Fold Δ = (Hemo/MIC of compound) / (Hemo/MIC of LL-37)” value (defibrinated sheep blood; Figure 6C) is reported as 16 and the “Hemo/MIC = (< 20% Hemo) / MIC Ec” value (defibrinated sheep blood; Figure 6C) is reported as 16.
In the case of `CC[C@H](C)[C@H](NC(=O)[C@H](CCCNC(=N)N)NC(=O)[C@H](CCC(N)=O)NC(=O)[C@@H](NC(=O)[C@@H](NC(=O)[C@H](CCCNC(=N)N)NC(=O)[C@@H](N)CCCCN)[C@@H](C)CC)C(C)C)C(=O)N[C@@H](CCCCN)C(=O)N[C@@H](CC(=O)O)C(=O)N[C@@H](Cc1ccccc1)C(=O)N[C@@H](CC(C)C)C(=O)N[C@@H](CCCNC(=N)N)C(=O)O` [(#10) KR-12] (H-KRIVQRIKDFLR-OH), the “MIC against E. coli as stated in the text and in the table of contents graphic” value (E. coli (ATCC 25922)) is reported as over 50 µM.
With Colistin [reference compound] the “Fold Δ = (Hemo/MIC of compound) / (Hemo/MIC of LL-37)” value (defibrinated sheep blood; Figure 1B) was 512, the “Fold Δ = (Hemo/MIC of compound) / (Hemo/MIC of LL-37)” value (defibrinated sheep blood; Figure 2B) was 256 and the “Hemo/MIC = (< 20% Hemo) / MIC Ec” value (defibrinated sheep blood; Figure 2B) was 64. The “Hemo/MIC = (< 20% Hemo) / MIC Ec” value (defibrinated sheep blood; Figure 4B) was 128.
In the case of `CC[C@H](C)[C@H](NC(=O)[C@H](CCCCN)NC(=O)[C@H](CCC(=O)O)NC(=O)[C@H](CCCCN)NC(=O)[C@H](CO)NC(=O)[C@H](CCCCN)NC(=O)[C@H](CCCNC(=N)N)NC(=O)[C@H](Cc1ccccc1)NC(=O)[C@H](Cc1ccccc1)NC(=O)[C@H](CC(=O)O)NC(=O)CN)C(=O)NCC(=O)N[C@@H](CCCCN)C(=O)N[C@@H](CCC(=O)O)C(=O)N[C@@H](Cc1ccccc1)C(=O)N[C@@H](CCCCN)C(=O)N[C@@H](CCCNC(=N)N)C(=O)N[C@H](C(=O)N[C@H](C(=O)N[C@@H](CCC(N)=O)C(=O)N[C@@H](CCCNC(=N)N)C(=O)N[C@H](C(=O)N[C@@H](CCCCN)C(=O)O)[C@@H](C)CC)C(C)C)[C@@H](C)CC` [(#4) GD-23] (H-GDFFRKSKEKIGKEFKRIVQRIK-OH; N-terminus and C-terminus assumed), the “Fold Δ = (Hemo/MIC of compound) / (Hemo/MIC of LL-37)” value (defibrinated sheep blood; Figure 1B) is reported as 64, the “Fold Δ = (Hemo/MIC of compound) / (Hemo/MIC of LL-37)” value (defibrinated sheep blood; Figure 6C) is reported as 32 and the “Hemo/MIC = (< 20% Hemo) / MIC Ec” value (defibrinated sheep blood; Figure 6C) is reported as 32.
In the case of `CC[C@H](C)[C@H](NC(=O)[C@H](CCCNC(=N)N)NC(=O)[C@H](CCC(N)=O)NC(=O)[C@@H](NC(=O)[C@@H](NC(=O)[C@H](CCCNC(=N)N)NC(=O)[C@H](CCCCN)NC(=O)[C@H](Cc1ccccc1)NC(=O)[C@@H](N)Cc1ccccc1)[C@@H](C)CC)C(C)C)C(=O)N[C@@H](CCCCN)C(=O)N[C@@H](CC(=O)O)C(=O)N[C@@H](Cc1ccccc1)C(=O)N[C@@H](CC(C)C)C(=O)N[C@@H](CCCNC(=N)N)C(=O)O` [(#18) FF-14] (H-FFKRIVQRIKDFLR-OH), the “MIC against E. coli as stated in the text and in the table of contents graphic” value (E. coli (ATCC 25922)) is reported as 3.1 µM.
For `CC[C@H](C)[C@H](NC(=O)[C@H](CCCCN)NC(=O)[C@H](CCC(=O)O)NC(=O)[C@H](CCCCN)NC(=O)[C@H](CO)NC(=O)[C@H](CCCCN)NC(=O)[C@H](CCCNC(=N)N)NC(=O)[C@H](Cc1ccccc1)NC(=O)[C@H](Cc1ccccc1)NC(=O)[C@H](CC(=O)O)NC(=O)CNC(=O)[C@H](CC(C)C)NC(=O)[C@@H](N)CC(C)C)C(=O)NCC(=O)N[C@@H](CCCCN)C(=O)N[C@@H](Cc1ccccc1)C(=O)N[C@@H](Cc1ccccc1)C(=O)N[C@@H](CCCCN)C(=O)N[C@@H](CCCNC(=N)N)C(=O)N[C@H](C(=O)N[C@H](C(=O)N[C@@H](CCC(N)=O)C(=O)N[C@@H](CCCNC(=N)N)C(=O)N[C@H](C(=O)N[C@@H](CCCCN)C(=O)O)[C@@H](C)CC)C(C)C)[C@@H](C)CC` [(#49) LL-25 (FF)] (H-LLGDFFRKSKEKIGKFFKRIVQRIK-OH; N-terminus assumed), the “Fold Δ = (Hemo/MIC of compound) / (Hemo/MIC of LL-37)” value (defibrinated sheep blood; Figure 6C) was 4 and the “Hemo/MIC = (< 20% Hemo) / MIC Ec” value (defibrinated sheep blood; Figure 6C) was 4.

From publication doi:10.1101/2025.05.22.655619v4 (bioRxiv, 2025)
